Reference: patent publication US11285127B2, “Compositions and methods for lowering triglycerides without raising LDL-C levels in a subject on concomitant statin therapy” (Amarin Pharmaceuticals Ireland Limited, priority 2013, dated 2022)

System: patients with fasting triglyceride levels >200 mg/dl and <500 mg/dl despite statin therapy
Assay: 12-week study: lipoprotein particle concentration (VLDL, LDL, HDL; nuclear magnetic resonance)
Format: in vivo, human
Conditions: for LDL Particle Concentration, Week 12 EP Median (IQR): MITT; for LDL Particle Concentration, Percent change from Baseline, Median (IQR) / LDL Particle Concentration, Difference from placebo, Estimated median: Week 12, MITT; for LDL Particle Concentration, Difference from placebo, Estimated median: difference in percent change
Description: Parameters (a)-(z) can be measured in accordance with any clinically acceptable methodology. For example, triglycerides, total cholesterol, HDL-C and fasting blood sugar can be sample from serum and analyzed using standard photometry techniques. VLDL-TG, LDL-C and VLDL-C can be calculated or determined using serum lipoprotein fractionation by preparative ultracentrifugation and subsequent quantitative analysis by refractometry or by analytic ultracentrifugal methodology. Apo A1, Apo B and hsCRP can be determined from serum using standard nephelometry techniques. Lipoprotein (a) can be determined from serum using standard turbidimetric immunoassay techniques. LDL particle number and particle size can be determined using nuclear magnetic resonance (NMR) spectrometry. Remnants lipoproteins and LDL-phospholipase A2 can be determined from EDTA plasma or serum and serum, respectively, using enzymatic immunoseparation techniques. Oxidized LDL, intercellular adhesion molecule-1 and interleukin-2 levels can be determined from serum using standard enzyme immunoassay techniques. These techniques are described in detail in standard textbooks, for example Tietz Fundamentals of Clinical Chemistry, 6th Ed. (Burtis, Ashwood and Borter Eds.), WB Saunders Company.
A multi-center, placebo-controlled, randomized, double-blind, 12-week study was performed to evaluate the efficacy and safety of >96% E-EPA in patients with fasting triglyceride levels >200 mg/dl and <500 mg/dl despite statin therapy (the mean of two qualifying entry values needed to be >185 mg/dl and at least one of the values needed to be >200 mg/dl). The primary objective of the study was to determine the efficacy of >96% E-EPA 2 g daily and 4 g daily, compared to placebo, in lowering fasting TG levels in patients with high risk for cardiovascular disease and with fasting TG levels 200 mg/dl and <500 mg/dl, despite treatment to LDL-C goal on statin therapy.
The secondary objectives of this study were the following: • 1. To determine the safety and tolerability of >96% E-EPA 2 g daily and 4 g daily; • 2. To determine the effect of >96% E-EPA on lipid and apolipoprotein profiles including total cholesterol (TC), non-high-density lipoprotein cholesterol (non-HDL-C), low density lipoprotein cholesterol (LDL-C), high density lipoprotein cholesterol (HDL-C), and […]; • 3. To determine the effect of >96% E-EPA on lipoprotein associated phospholipase A2 (Lp-PLA2) from baseline to week 12; • 4. To determine the effect of >96% E-EPA on low-density lipoprotein (LDL) particle number and size; • 5. To determine the effect of >96% E-EPA on oxidized LDL; • 6. To determine the effect of >96% E-EPA on fasting plasma glucose (FPG) and hemoglobin A1c (HbA1c); • 7. To determine the effect of >96% E-EPA on insulin resistance; • 8. To determine the effect of >96% E-EPA on high-sensitivity C-reactive protein (hsCRP); • 9. To determine the effects of >96% E-EPA 2 g daily and 4 g daily on the incorporation of fatty acids into red blood cell membranes and into plasma phospholipids; • 10. To explore the relationship between baseline fasting TG levels and the reduction in fasting TG levels; and • 11. To explore the relationship between changes of fatty acid concentrations in plasma and red blood cell membranes, and the reduction in fasting TG levels.
The primary efficacy variable for the double-blind treatment period was percent change in TG from baseline to Week 12 endpoint. […]

[1] = 2 g/day, 12 weeks, placebo-adjusted Hodges-Lehmann median
[2] = 4 g/day, 12 weeks, placebo-adjusted Hodges-Lehmann median
[3] = 4 g/day, 12 weeks, placebo-adjusted Hodges-Lehmann median, listed as IPE
[4] = IPE 2 g/day (n = 222), 12 weeks

CC/C=C\C/C=C\C/C=C\C/C=C\C/C=C\CCCC(=O)OCC [AMR101, ethyl eicosapentaenoate]
IDL particle concentration, Median Change From Baseline IPE 2 g/day vs Placebo [1]: 8.6% | Large HDL particle concentration, Median Change From Baseline IPE 2 g/day vs Placebo [1]: −13.5% | Large LDL particle concentration, Median Change From Baseline IPE 2 g/day vs Placebo [1]: 26.5% | Large VLDL particle concentration, Median Change From Baseline IPE 2 g/day vs Placebo [1]: −24.2% | Medium HDL particle concentration, Median Change From Baseline IPE 2 g/day vs Placebo [1]: −4.5% | Medium VLDL particle concentration, Median Change From Baseline IPE 2 g/day vs Placebo [1]: 2.6% | Small HDL particle concentration, Median Change From Baseline IPE 2 g/day vs Placebo [1]: −0.2% | Small LDL particle concentration, Median Change From Baseline IPE 2 g/day vs Placebo [1]: −14.7% | Small VLDL particle concentration, Median Change From Baseline IPE 2 g/day vs Placebo [1]: 16.5% | Total HDL particle concentration, Median Change From Baseline IPE 2 g/day vs Placebo [1]: −3.1% | Total LDL particle concentration, Median Change From Baseline IPE 2 g/day vs Placebo [1]: −7.5% | Total VLDL particle concentration, Median Change From Baseline IPE 2 g/day vs Placebo [1]: 1.8% | Reduction of median concentration of small LDL particles over baseline when adjusted for placebo control (4 g per day, 12 weeks): 13.5% | Reduction of median concentration of total HDL over baseline when adjusted for placebo (4 g per day, 12 weeks): 7.4% | Reduction of median concentration of total LDL over baseline when adjusted for placebo (4 g per day, 12 weeks): 7.7% | Reduction of median concentration of total VLDL over baseline when adjusted for placebo (4 g per day, 12 weeks): 12.2% | IDL particle concentration, Median Change From Baseline IPE 4 g/day vs Placebo [2]: 10.0% | Medium HDL particle concentration, Median Change From Baseline IPE 4 g/day vs Placebo [2]: −6.5% | Small HDL particle concentration, Median Change From Baseline IPE 4 g/day vs Placebo [2]: −2.8% | Small LDL particle concentration, Median Change From Baseline IPE 4 g/day vs Placebo [2]: −13.5% | Small VLDL particle concentration, Median Change From Baseline IPE 4 g/day vs Placebo [2]: 2.8% | Total HDL particle concentration, Median Change From Baseline IPE 4 g/day vs Placebo [2]: −7.4% | Total LDL particle concentration, Median Change From Baseline IPE 4 g/day vs Placebo [2]: −7.7% | Total VLDL particle concentration, Median Change From Baseline IPE 4 g/day vs Placebo [2]: −12.2% | Large HDL particle concentration, Median Change From Baseline IPE 4 g/day vs Placebo [3]: −31.0% | Large LDL particle concentration, Median Change From Baseline IPE 4 g/day vs Placebo [3]: 34.2% | Large VLDL particle concentration, Median Change From Baseline IPE 4 g/day vs Placebo [3]: −46.4% | Medium VLDL particle concentration, Median Change From Baseline IPE 4 g/day vs Placebo [3]: −12.1% | Small LDL particle concentration, Median Change From Baseline IPE 4 g/day vs Placebo [3]: −13.5% | Total HDL particle concentration, Median Change From Baseline IPE 4 g/day vs Placebo [3]: −7.4% | Total LDL particle concentration, Median Change From Baseline IPE 4 g/day vs Placebo [3]: −7.7% | Total VLDL particle concentration, Median Change From Baseline IPE 4 g/day vs Placebo [3]: −12.2% | LDL Particle Concentration, Week 12 EP Median (IQR) (AMR101 2g/d + statin, n 222): 1215.0 (355.0) nmol/L | LDL Particle Concentration, Percent change from Baseline, Median (IQR) (AMR101 2g/d + statin): 4.7 (29.2) % | LDL Particle Concentration, Difference from placebo, Estimated median (AMR101 2g/d + statin): −7.5 | LDL Particle Concentration, Week 12 EP Median (IQR) (AMR101 4g/d + statin, n 216): 1190.5 (512.0) nmol/L | LDL Particle Concentration, Percent change from Baseline, Median (IQR) (AMR101 4g/d + statin): 3.8 (31.8) % | LDL Particle Concentration, Difference from placebo, Estimated median (AMR101 4g/d + statin): −7.7 | IDL particle concentration, Change from Baseline % (median) [4]: 10.5% | IDL particle concentration, End of Treatment (median) [4]: 63.5 nmol/L | Large HDL particle concentration, Change from Baseline % (median) [4]: −4.0% | Large HDL particle concentration, End of Treatment (median) [4]: 2.4 µmol/L | Large LDL particle concentration, Change from Baseline % (median) [4]: 47.7% | Large LDL particle concentration, End of Treatment (median) [4]: 202.0 nmol/L | Large VLDL particle concentration, Change from Baseline % (median) [4]: −19.7% | Large VLDL particle concentration, End of Treatment (median) [4]: 10 nM | Medium HDL particle concentration, Change from Baseline % (median) [4]: 2.9% | Medium HDL particle concentration, End of Treatment (median) [4]: 7.2 µmol/L | Medium VLDL particle concentration, Change from Baseline % (median) [4]: 7.9% | Medium VLDL particle concentration, End of Treatment (median) [4]: 59.6 nmol/L | Small HDL particle concentration, Change from Baseline % (median) [4]: −0.6% | Small HDL particle concentration, End of Treatment (median) [4]: 23.8 µmol/L | Small LDL particle concentration, Change from Baseline % (median) [4]: −4.3% | Small LDL particle concentration, End of Treatment (median) [4]: 920.5 nmol/L | Small VLDL particle concentration, Change from Baseline % (median) [4]: 22.1% | Small VLDL particle concentration, End of Treatment (median) [4]: 49.6 nmol/L | Total HDL particle concentration, Change from Baseline % (median) [4]: 0.7% | Total HDL particle concentration, End of Treatment (median) [4]: 34.7 µmol/L | Total LDL particle concentration, Change from Baseline % (median) [4]: 4.7% | Total LDL particle concentration, End of Treatment (median) [4]: 1215 nmol/L | Total VLDL particle concentration, Change from Baseline % (median) [4]: 12.0%
